Results: US10300070B2, “Metabolically-activated drug conjugates to overcome resistance in cancer therapy” (The Brigham and Women's Hospital, Inc., priority 2014, dated 2019)

What was measured:
Assay type in all cases: cell-based
CD44 = experiment: Cell surface CD44 expression by FACS; details: for CD44 expression after exogenous cytokine: MDA-MB-231, within 4 hours
Description: DU145 and DU145-TxR were provided by A. Mizokami^63 and cultured in DMEM containing 10% FBS, resistant line included 100 nM paclitaxel in the culture media. During treatments with chemotherapeutics, cells were grown to semi-confluence and treated with indicated concentrations of chemotherapy in serum-containing medium for indicated time points. When small molecule inhibitors were included in treatments, they were added simultaneously with chemotherapy. […] Scrambled siRNA was used as a control. For chemotherapy treatment experiments: Cancer cells were plated at a density of 0.5-1×10^5 cells/ml and allowed to adhere for 24-48 hr. […] Following washes with PBS, adherent cells were trypsinized and re-plated at a density of 1.5-2×10^5 cells/ml and cultured in serum-containing medium. […] A population of drug naïve parent cells were always cultured alongside DTC and fresh media was added at every interval that experimental population (DTC) received fresh media.
Cells were cultured as indicated, removed from culture dishes with accutase stem-pro dissociation reagent (Invitrogen, Carlsbad Calif.) and fixed with 4% paraformaldehyde in PBS for 30 min at RT, washed twice with PBS and blocked in 10% goat serum (v/v). Whenever necessary, cells were permeabilized with 0.05% saponin in PBS. Cells were incubated with CD44-APC (BD biosciences, San Jose, Calif.) overnight at 4 C and analyzed by FACS (C6 Accuri cyomteters Inc Ann Arbor, Mich.), data analysis using FlowJo software (Tree Star Inc., Ashland Oreg.) and Accuri cFlow plus software to obtain and confirm mean fluorescent intensity (GNU.org).

MDA-MB-231 parent or DTC [1] = experiment: Glucose uptake (2-NBDG) determined by FACS; details: for suppression of glucose consumption (2-NBDG uptake): incubation 3 h, DTC compared to drug naïve parent cells; for 2-NBDG uptake after exogenously-added cytokines: MDA-MB-231 parent cells, 24 hours incubation, 50 ng/ml
Description: (§1) MDA-MB-231 (ATCC), MDA-MB-468 and 4T-1 mammary carcinoma cells (ATCC) were cultured in DMEM containing 10% Fetal Bovine Serum (FBS) at 37 C and 5% CO2. DU145 and DU145-TxR were provided by A. Mizokami^63 and cultured in DMEM containing 10% FBS, resistant line included 100 nM paclitaxel in the culture media. During treatments with chemotherapeutics, cells were grown to semi-confluence and treated with indicated concentrations of chemotherapy in serum-containing medium for indicated time points. When small molecule inhibitors were included in treatments, they were added simultaneously with chemotherapy. For siRNA gene knockdown, cells were transfected with silencer-select siRNA plasmids (Ambion, Invitrogen, Grand Island, N.Y.) pan-CD44(1) (s2682) panCD44(2) (s2681), siHIF1A (s6539) using lipofectamine 2000 (Invitrogen, Carlsbad Calif.) following manufacturer protocol and cultured for 72 hours prior to treatment. Scrambled siRNA was used as a control. For chemotherapy treatment experiments: Cancer cells were plated at a density of 0.5-1×10^5 cells/ml and allowed to adhere for 24-48 hr. When cells reached ˜70% confluency they were treated with cytotoxics at indicated concentrations for 24-48 hours and utilized for subsequent assays. For experiments in which a shorter incubation was used (i.e. 15 min-4 hours) fresh media was added 24 hours prior to addition of chemotherapy suspended to stock concentration in PBS. For generation of DTC: Cells were treated for 48 hours with chemotherapy. Following washes with PBS, adherent cells were trypsinized and re-plated at a density of 1.5-2×10^5 cells/ml and cultured in serum-containing medium. After 24 hours incubation, floating cells were removed and remaining cells were washed with 1× PBS and considered as chemotherapy-tolerant cells. A population of drug naïve parent cells were always cultured alongside DTC and fresh media was added at every interval that experimental population (DTC) received fresh media.
In vitro detection of glucose uptake was performed using 2-(N-7-Nitrobenz-2-oxa-1,3-diazol-4-yl)Amino)-2-Deoxyglucose (2-NBDG) (Invitrogen, Carlsbad Calif.), dissolved in DMSO to 50 mM. Cells were pre-treated with kinase inhibitors or vehicle for 3 hours in glucose- and phenol red-free media before addition of 50 μM 2-NBDG and subsequently read by FACS ex/em 488/535 nm. ROS was determined by pre-loading cells with CM-DCFDA (1 μM), washed 2 times with PBS and subsequently treated with H2O2 or vehicle; when kinase inhibitors were included in treatment, cells were first incubated with inhibitor for 3 hours prior to CM-DCFDA loading. Fluorescence was then determined by FACS ex/em 488/535 nm. For the following assays, cells were trypsinized and counted by Nexcelom cell counter (Lawrence, Mass.) prior to being subjected to analysis in order to achieve a quantitative value per cell: Reduced glutathione was determined using a colorimetric glutathione recycling system by DTNB following manufacturer protocol (Biovision, Milpitas Calif.). ATP analysis was performed using the ATP colorimetric analysis kit (Biovision) according to manufacturer protocol. Reductive stress was detected using the Enzo nitroreductase hypoxia kit (Enzo Life Sciences, Ann Arbor Mich.) following manufacturer protocol and visualized by fluorescent microscopy; a set of non-docetaxel-treated control cells loaded with fluorescent probe were compared against docetaxel-treated cells to derive a % redox stress increase which was calculated as fluorescence intensity of nitroreductase probe per cell and expressed as increase from vehicle. Protein synthesis was measured by two means 1. L-azidohomoalanine amino acid analog of methionine containing an azide moiety was added to cultured cells (parent or DTC) for 3 hours which is incorporated into proteins during active protein synthesis. […]

DTC = experiment: Total intracellular reduced glutathione (GSH) in drug tolerant cells; details: acute (3 hours) exposure; ML-265 10 μM, catalase 2000 U/ml
Description: In vitro detection of glucose uptake was performed using 2-(N-7-Nitrobenz-2-oxa-1,3-diazol-4-yl)Amino)-2-Deoxyglucose (2-NBDG) (Invitrogen, Carlsbad Calif.), dissolved in DMSO to 50 mM. Cells were pre-treated with kinase inhibitors or vehicle for 3 hours in glucose- and phenol red-free media before addition of 50 μM 2-NBDG and subsequently read by FACS ex/em 488/535 nm. ROS was determined by pre-loading cells with CM-DCFDA (1 μM), washed 2 times with PBS and subsequently treated with H2O2 or vehicle; when kinase inhibitors were included in treatment, cells were first incubated with inhibitor for 3 hours prior to CM-DCFDA loading. Fluorescence was then determined by FACS ex/em 488/535 nm. For the following assays, cells were trypsinized and counted by Nexcelom cell counter (Lawrence, Mass.) prior to being subjected to analysis in order to achieve a quantitative value per cell: Reduced glutathione was determined using a colorimetric glutathione recycling system by DTNB following manufacturer protocol (Biovision, Milpitas Calif.). […] Protein synthesis was measured by two means 1. […] Fluorescence was detected by FACS as described below. […] GFP protein translation was determined by fluorescent microscopy. […] Individual cells were evaluated for fluorescent intensity of caspase-3 activity (red signal intensity) and green fluorescent protein intensity. […]

MDA-MB-231 parent or DTC [2] = experiment: Cell viability (MTS) and trypan blue exclusion of parent or DTC treated with doxorubicin
Description: as §1
Following drug incubation, cells were washed and suspended in phenol red-free RPMI or DMEM and subsequently treated with MTS reagent using manufacturer protocol (Promega, Madison, Wis.). Trypan blue exclusion was used to validate experiments and evaluate % of dead cells performed by bright field microscopy.

Molecule | 2-NBDG uptake after exogenously-added cytokines (MDA-MB-231 parent or DTC [1]) | CD44 expression after exogenous cytokine (CD44) | other results
Cc1ccc(S(=O)(=O)/C=C/C#N)cc1 [Bay-11] | – | – | chemotherapy early-induced CD44 expression (CD44; DTX 25 nM, 4 h, Bay-11 10 μM, neutralizing antibodies 2 μg/ml): modulated chemotherapy early-induced CD44 expression
CO[C@H]1C[C@@H]2CC[C@@H](C)[C@@](O)(O2)C(=O)C(=O)N2CCCC[C@H]2C(=O)O[C@H]([C@H](C)C[C@@H]2CC[C@@H](OCCO)[C@H](OC)C2)CC(=O)[C@H](C)/C=C(\C)[C@@H](O)[C@@H](OC)C(=O)[C@H](C)C[C@H](C)/C=C/C=C/C=C/1C [Everolimus, 40-O-(2-hydroxyethyl)-rapamycin] | – | – | suppression of glucose consumption (2-NBDG uptake) (MDA-MB-231 parent or DTC [1]): greater suppression of glucose consumption in the DTC subset compared to drug naïve parent cells
Cn1c2cc([S+](C)[O-])sc2c2cnn(Cc3cccc(N)c3)c(=O)c21 (stereo not shown) [ML-265] | – | – | total levels of reduced glutathione (GSH) in DTC (DTC): diminished total levels of reduced glutathione in DTC
Oc1cccc(-c2nc(N3CCOCC3)c3oc4ncccc4c3n2)c1 [PI103, 3-(4-(4-Morpholinyl)pyrido[3′,2′:4,5]furo[3,2-d]pyrimidin-2-yl)phenol] | – | – | suppression of glucose consumption (2-NBDG uptake) (MDA-MB-231 parent or DTC [1]): greater suppression of glucose consumption in the DTC subset compared to drug naïve parent cells; response to dox in combination with inhibitor, DTC (MDA-MB-231 parent or DTC [2]; DTC, co-incubated with dox, 48 h, PI103 5 μM, lonidamine 10 μM, KB-458 and KB-697 10 μM): exquisitely responsive, overtly driven to cell death by dox in combination; response to dox in combination with inhibitor, parent cells (MDA-MB-231 parent or DTC [2]; drug naïve parent cells, co-incubated with dox, 48 h): little synergism or a reversion of synergy
COc1cccc2c1C(=O)c1c(O)c3c(c(O)c1C2=O)C[C@@](O)(C(=O)CO)C[C@@H]3O[C@H]1C[C@H](N)[C@H](O)[C@H](C)O1 [doxorubicin, (1S,3S)-3-Glycoloyl-3,5,12-trihydroxy-10-methoxy-6,11-dioxo-1,2,3,4,6,11-hexahydro-1-tetracenyl 3-amino-2,3,6-trideoxy-α-L-lyxo-hexopyranoside] | – | – | response of DTC to doxorubicin (trypan blue exclusion) (MDA-MB-231 parent or DTC [2]; 72 h, DTC vs parent): DTC developed resistance; doxorubicin-mediated toxicity with PPP intermediates (MDA-MB-231 parent or DTC [2]; drug naïve parent cells co-treated with exogenous NADPH, GSH or ectopic G6PD expression): reduction of doxorubicin-mediated toxicity
GM-CSF: recombinant cytokine purchased from Biolegend | didn't observe any alterations in 2-NBDG uptake | able to independently drive CD44 expression in a dose-dependent manner | –
IFN-γ: recombinant cytokine purchased from Biolegend | didn't observe any alterations in 2-NBDG uptake | able to independently drive CD44 expression in a dose-dependent manner | –
IL-6: recombinant cytokine purchased from Biolegend | didn't observe any alterations in 2-NBDG uptake | – | –
IL-8: recombinant cytokine purchased from Biolegend | didn't observe any alterations in 2-NBDG uptake | – | –
IL-23: recombinant cytokine purchased from Biolegend (protein, UniProt Q9NPF7 20-189; P29460 23-328, looked up) Interleukin-23 subunit alpha: RAVPGGSSPAWTQCQQLSQKLCTLAWSAHPLVGHMDLREEGDEETTNDVPHIQCGDGCDPQGLRDNSQFCLQRIHQGLIFYEKLLGSDIFTGEPSLLPDSPVGQLHASLLGLSQLLQPEGHHWETQQIPSLSPSQPWQRLLLRFKILRSLQAFVAVAARVFAHGAATLSP Interleukin-12 subunit beta: IWELKKDVYVVELDWYPDAPGEMVVLTCDTPEEDGITWTLDQSSEVLGSGKTLTIQVKEFGDAGQYTCHKGGEVLSHSLLLLHKKEDGIWSTDILKDQKEPKNKTFLRCEAKNYSGRFTCWWLTTISTDLTFSVKSSRGSSDPQGVTCGAATLSAERVRGDNKEYEYSVECQEDSACPAAEESLPIEVMVDAVHKLKYENYTSSFFIRDIIKPDPPKNLQLKPLKNSRQVEVSWEYPDTWSTPHSYFSLTFCVQVQGKSKREKKDRVFTDKTSATVICRKNASISVRAQDRYYSSSWSEWASVPCS | didn't observe any alterations in 2-NBDG uptake | able to independently drive CD44 expression in a dose-dependent manner | –
